Experimental data reported in ChEMBL document CHEMBL1201862, “PubChem BioAssay data set” (2004).
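Values below derive from 48-hour exposures of cells grown in 96-well plates, with endpoints linearly interpolated between the two concentrations bracketing the appropriate inhibition level. Here, GI50 denotes the concentration required for 50% inhibition of growth.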 Calls of active or inactive are those of the source. Cut-off read from the data, not from the text of the source: active = GI50 up to about 1.1 µM and inactive = higher.

Key:
Assay in all cases: NCI anticancer screen, dose series, 48 h
[1] = system: 786-0
[2] = system: A498
[3] = system: A549
[4] = system: ACHN
[5] = system: BT-549
[6] = system: CAKI-1
[7] = system: CCRF-CEM
[8] = system: COLO 205
[9] = system: DU-145
[10] = system: EKVX
[11] = system: HCC 2998
[12] = system: HCT-116
[13] = system: HCT-15
[14] = system: HL-60
[15] = system: HOP-62
[16] = system: HOP-92
[17] = system: HT-29
[18] = system: Hs-578T
[19] = system: IGROV-1
[20] = system: K562
[21] = system: KM12
[22] = system: LOX IMVI
[23] = system: M14
[24] = system: MCF7
[25] = system: MDA-MB-231
[26] = system: MDA-MB-435
[27] = system: MDA-N
[28] = system: MOLT-4
[29] = system: Malme-3M
[30] = system: NCI-H226
[31] = system: NCI-H23
[32] = system: NCI-H460
[33] = system: NCI-H522
[34] = system: NCI/ADR-RES
[35] = system: OVCAR-3
[36] = system: OVCAR-4
[37] = system: OVCAR-5
[38] = system: OVCAR-8
[39] = system: PC-3
[40] = system: RPMI-8226
[41] = system: RXF 393
[42] = system: SF-268
[43] = system: SF-295
[44] = system: SF-539
[45] = system: SK-MEL-28
[46] = system: SK-MEL-2
[47] = system: SK-MEL-5
[48] = system: SK-OV-3
[49] = system: SN12C
[50] = system: SNB-19
[51] = system: SNB-75
[52] = system: SR
[53] = system: SW-620
[54] = system: T47D
[55] = system: TK-10
[56] = system: U-251
[57] = system: UACC-257
[58] = system: UACC-62
[59] = system: UO-31

Measured: GI50

Cn1cncc1CC1COC(=O)C1C(O)c1ccccc1 (configuration not stated)
> 100 µM: [13]
inactive: [1] > 100 µM | [2] > 100 µM | [3] > 100 µM | [4] > 100 µM | [5] > 100 µM | [6] > 100 µM | [7] > 100 µM | [8] > 100 µM | [9] > 100 µM | [10] > 100 µM | [11] > 100 µM | [12] > 100 µM | [14] > 100 µM | [15] > 100 µM | [16] > 100 µM | [17] > 100 µM | [18] > 100 µM | [19] > 100 µM | [20] > 100 µM | [21] > 100 µM | [22] > 100 µM | [23] > 100 µM | [24] > 100 µM | [25] > 100 µM | [26] > 100 µM | [27] > 100 µM | [28] > 100 µM | [29] > 100 µM | [30] > 100 µM | [31] > 100 µM | [32] > 100 µM | [33] > 100 µM | [34] > 100 µM | [35] > 100 µM | [36] > 100 µM | [37] > 100 µM | [38] > 100 µM | [39] > 100 µM | [40] > 100 µM | [41] > 100 µM | [42] > 100 µM | [43] > 100 µM | [44] > 100 µM | [45] > 100 µM | [46] > 100 µM | [47] > 100 µM | [48] > 100 µM | [49] > 100 µM | [50] > 100 µM | [51] > 100 µM | [52] > 100 µM | [53] > 100 µM | [54] > 100 µM | [55] > 100 µM | [56] > 100 µM | [57] > 100 µM | [58] > 100 µM

CNC(=O)[C@H](Cc1ccccc1)NC(=O)N(CCC#N)CCN(C(=O)N[C@@H](Cc1ccccc1)C(=O)OC)c1ccccc1
> 100 µM: [13]
inactive: [1] > 100 µM | [2] > 100 µM | [3] > 100 µM | [4] > 100 µM | [5] > 100 µM | [6] > 100 µM | [7] > 100 µM | [8] > 100 µM | [9] > 100 µM | [10] > 100 µM | [11] > 10 µM | [12] > 100 µM | [14] > 100 µM | [15] > 100 µM | [16] > 100 µM | [17] > 100 µM | [18] > 100 µM | [20] > 100 µM | [21] > 100 µM | [22] > 100 µM | [23] > 100 µM | [24] 15.7 µM | [25] > 100 µM | [26] > 100 µM | [27] > 100 µM | [28] > 100 µM | [29] > 100 µM | [30] > 100 µM | [31] > 100 µM | [32] > 100 µM | [33] > 100 µM | [34] > 100 µM | [35] > 100 µM | [36] > 100 µM | [37] > 100 µM | [38] > 100 µM | [39] > 100 µM | [40] > 100 µM | [41] > 100 µM | [42] > 100 µM | [43] > 100 µM | [44] > 100 µM | [45] > 100 µM | [46] > 100 µM | [47] > 100 µM | [48] > 100 µM | [50] > 100 µM | [51] 16.6 µM | [52] > 100 µM | [53] > 100 µM | [54] > 100 µM | [55] > 100 µM | [56] > 100 µM | [57] > 100 µM | [58] > 100 µM | [59] > 100 µM

COc1cc(C=O)cc(/C=N/c2ccc(S(N)(=O)=O)cc2)c1O
inactive: [2] 23.8 µM | [3] 44.1 µM | [4] 3.82 µM | [5] 6.73 µM | [6] 7.38 µM | [7] 9.77 µM | [8] 16.6 µM | [9] 40.1 µM | [10] 56.2 µM | [11] 19.3 µM | [12] 18.2 µM | [14] 25.4 µM | [15] 13.5 µM | [16] 2.86 µM | [17] 13.7 µM | [18] 2.82 µM | [19] > 100 µM | [20] 47 µM | [21] 27.7 µM | [22] 10.9 µM | [23] 3.92 µM | [24] > 100 µM | [25] 20.4 µM | [26] 9.2 µM | [27] 5.6 µM | [28] 18 µM | [29] 2.88 µM | [30] 4.3 µM | [31] > 100 µM | [32] 26.2 µM | [33] 21.2 µM | [34] 10.5 µM | [35] 26.1 µM | [36] > 100 µM | [37] 26.7 µM | [38] 6.21 µM | [39] 2.96 µM | [40] 7.13 µM | [41] 3.99 µM | [42] 4.13 µM | [43] 3.64 µM | [44] 2.93 µM | [45] 4.36 µM | [46] 4.47 µM | [47] 4.91 µM | [48] 2.9 µM | [49] 6.65 µM | [50] 11.3 µM | [51] 23.9 µM | [52] 6.11 µM | [53] 24.4 µM | [54] 14.3 µM | [55] 31.7 µM | [56] 5.36 µM | [57] 6.92 µM | [58] 23.8 µM | [59] 5.51 µM
63.1 µM: [13]

CCC(C)C1NC(=O)C(NC(=O)C(CC(C)C)N(C)C(=O)[C@@H]2CC(O)CN2C(=O)[C@H](C)O)C(C)OC(=O)[C@H](Cc2ccc(OC)cc2)N(C)C(=O)[C@@H]2CCCN2C(=O)[C@H](CC(C)C)NC(=O)C(C)C(=O)[C@H](C(C)C)OC(=O)CC1O (some centres not stated)
inactive: [6] 1.14 µM | [34] 6.84 µM | [59] 1.44 µM
active: [1] 0.258 µM | [2] 0.759 µM | [3] 0.325 µM | [4] 0.351 µM | [5] 0.189 µM | [7] 0.191 µM | [8] 0.117 µM | [9] 0.356 µM | [10] 0.0201 µM | [11] 0.148 µM | [12] 0.0458 µM | [14] 0.417 µM | [15] 0.25 µM | [16] 0.255 µM | [17] 0.134 µM | [18] 0.0266 µM | [19] 0.181 µM | [20] 0.29 µM | [21] 0.035 µM | [22] 0.138 µM | [23] 0.0935 µM | [24] 0.0627 µM | [25] 0.349 µM | [26] 0.152 µM | [27] 0.133 µM | [28] 0.102 µM | [29] 0.0664 µM | [30] 0.0641 µM | [31] 0.0169 µM | [32] 0.117 µM | [33] 0.15 µM | [35] 0.232 µM | [36] 0.17 µM | [37] 0.265 µM | [38] 0.406 µM | [39] 0.252 µM | [40] 0.249 µM | [41] 0.0638 µM | [42] 0.153 µM | [43] 0.225 µM | [44] 0.0319 µM | [45] 0.0462 µM | [46] 0.0621 µM | [47] 0.0359 µM | [48] 0.179 µM | [49] 0.147 µM | [50] 0.164 µM | [51] 0.141 µM | [52] 0.345 µM | [53] 0.235 µM | [54] 0.0452 µM | [55] 0.676 µM | [56] 0.0718 µM | [57] 0.276 µM | [58] 0.0542 µM
2.13 µM: [13]
